According to patent EP1377579B1 (Aventis Pharmaceuticals Inc., priority 2000, dated 2002):
pIC50: −log10 of the molar value. Counter-ions that a name gives are not always drawn. Like-named read-outs stand apart in the source and are kept apart here.

What was measured:
[1] = biological target: cdk1/cyclin B (Homo sapiens, UniProt P06493); assay: Cyclin-dependent kinase assay, cdk1/cyclin B; details: CDK1 IC50, nM, Histone H1, 10 µM ATP
[2] = biological target: cdk2/cyclin E (Homo sapiens, UniProt P24941); assay: Cyclin-dependent kinase assay, cdk2/cyclin E; details: CDK2 IC50, nM, GST-pRb substrate, 10 µM ATP
[3] = biological target: cdk4/cyclin D1 (Homo sapiens, UniProt P11802); assay: Cyclin-dependent kinase assay, cdk4/cyclin D1; format: biochemical; details: cyclin D1/cdk4; GST-pRb substrate, 10 µM ATP
[4] = tested on: MDA-MB-435; assay: In vitro proliferation assay (MTT), MDA-MB-435; format: cell-based, human; details: value (SD, n) where given, read-out: MB-435 Breast (IC50 µM)
In short: (§1)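 Following 3 days of compound treatment, MTT was added and the dye dissolved in DMSO for 570 nm absorbance; IC50s derived from these raw readings. Seeding density 1000 to 2500 cells/well depending on line, with overnight recovery before dosing.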

[5] = tested on: PC-3; assay: In vitro proliferation assay (MTT), PC-3; format: cell-based, human; details: value (SD, n) where given, read-out: PC-3 Prostate (IC50 µM)
In short: as §1

[6] = Homo sapiens, MDA-MB-435, MTT assay

cdk1/cyclin B, sequence (P06493 whole entry): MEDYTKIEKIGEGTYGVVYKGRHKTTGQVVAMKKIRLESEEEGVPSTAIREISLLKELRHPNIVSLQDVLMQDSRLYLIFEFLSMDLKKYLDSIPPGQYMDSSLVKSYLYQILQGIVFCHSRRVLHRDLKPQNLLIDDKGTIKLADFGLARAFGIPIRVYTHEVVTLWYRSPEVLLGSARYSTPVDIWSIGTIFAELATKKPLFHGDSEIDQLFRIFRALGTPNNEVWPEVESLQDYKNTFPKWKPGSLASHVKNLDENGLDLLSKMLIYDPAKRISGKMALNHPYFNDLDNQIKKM
cdk1/cyclin B, sequence (P14635 whole entry partner): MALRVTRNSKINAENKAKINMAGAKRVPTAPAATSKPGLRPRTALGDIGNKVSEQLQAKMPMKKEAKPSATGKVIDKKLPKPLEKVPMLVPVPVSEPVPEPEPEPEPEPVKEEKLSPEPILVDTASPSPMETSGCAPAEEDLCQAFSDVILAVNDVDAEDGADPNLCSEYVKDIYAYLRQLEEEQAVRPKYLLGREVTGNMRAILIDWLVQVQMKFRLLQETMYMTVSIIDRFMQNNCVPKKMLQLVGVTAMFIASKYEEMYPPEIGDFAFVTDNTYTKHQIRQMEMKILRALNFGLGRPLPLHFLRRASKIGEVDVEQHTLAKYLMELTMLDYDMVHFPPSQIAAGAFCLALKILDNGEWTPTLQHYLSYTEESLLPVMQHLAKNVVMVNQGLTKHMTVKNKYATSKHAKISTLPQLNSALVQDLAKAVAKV
cdk4/cyclin D1, sequence (P11802 whole entry): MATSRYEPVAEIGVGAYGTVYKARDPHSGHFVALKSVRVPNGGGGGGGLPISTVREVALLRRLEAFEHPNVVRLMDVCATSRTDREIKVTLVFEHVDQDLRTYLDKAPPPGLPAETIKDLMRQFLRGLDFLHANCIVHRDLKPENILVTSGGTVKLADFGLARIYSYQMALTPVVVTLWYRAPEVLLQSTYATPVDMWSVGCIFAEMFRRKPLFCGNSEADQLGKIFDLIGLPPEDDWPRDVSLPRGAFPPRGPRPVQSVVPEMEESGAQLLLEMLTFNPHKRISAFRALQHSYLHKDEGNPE
cdk4/cyclin D1, sequence (P24385 whole entry partner): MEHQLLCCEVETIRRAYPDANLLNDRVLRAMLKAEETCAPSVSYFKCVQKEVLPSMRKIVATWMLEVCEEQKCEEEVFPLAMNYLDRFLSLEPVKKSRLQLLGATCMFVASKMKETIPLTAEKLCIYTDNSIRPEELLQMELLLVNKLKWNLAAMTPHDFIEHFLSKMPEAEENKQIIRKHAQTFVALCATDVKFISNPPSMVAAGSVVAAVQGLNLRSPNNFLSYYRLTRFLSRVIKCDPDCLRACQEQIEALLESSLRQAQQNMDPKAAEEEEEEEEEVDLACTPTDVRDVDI

| SMILES | IC50 [1] [nM] | IC50 [2] [nM] | pIC50 [3] | IC50 [4, 6] [µM] | IC50 ([5]; Homo sapiens, PC-3, MTT assay) [µM] | IC50 ([4]; MTT assay) [µM] | IC50 ([5]; MTT assay) [µM] |
| --- | --- | --- | --- | --- | --- | --- | --- |
| N[C@H]1CC[C@H](Nc2nc(NC3CCN(C(=O)Cc4cccs4)CC3)c3ncn(C4CCCC4)c3n2)CC1 [compound 61, trans-1-{4-[2-(4-Amino-cyclohexylamino)-9-cyclopentyl-9H-purin-6-ylamino]-piperidin-1-yl}-2-thiophen-2-yl-ethanone dihydrochloride] | 40 | 38 | 6.12 | 0.61 | 0.58 | – | – |
| N[C@H]1CC[C@H](Nc2nc(NC3CCN(C(=O)C4CC4)CC3)c3ncn(C4CCCC4)c3n2)CC1 [compound 64, trans-1-{4-[2-(4-Amino-cyclohexylamino)-9-cyclopentyl-9H-purin-6-ylamino]-piperidin-1-yl}-1-cyclopropyl-methanone dihydrochloride] | 65 | 62 | 6.23 | 1.13 | 1.03 | – | – |
| COCC(=O)N1CCC(Nc2nc(N[C@H]3CC[C@H](N)CC3)nc3c2ncn3C2CCCC2)CC1 [compound 65, trans-1-{4-[2-(4-Amino-cyclohexylamino)-9-cyclopentyl-9H-purin-6-ylamino]-piperidin-1-yl}-2-methoxy-ethanone dihydrochloride] | 72 | 50 | 6.12 | 3.09 | 3.29 | – | – |
| N[C@H]1CC[C@H](Nc2nc(NC3CCN(C(=O)c4cccc5c4-c4ccccc4C5=O)CC3)c3ncn(C4CCCC4)c3n2)CC1 [compound 66, trans-4-(1-{4-[2-(4-Amino-cyclohexylamino)-9-cyclopentyl-9H-purin-6-ylamino]-piperidin-1-yl}-methanoyl)-fluoren-9-one] | 234 | 325 | 5.76 | 1.66 | 1.93 | – | – |
| N[C@H]1CC[C@H](Nc2nc(NC3CCN(C(=O)c4cccnc4)CC3)c3ncn(C4CCCC4)c3n2)CC1 [compound 67, trans-1-{4-[2-(4-Amino-cyclohexylamino)-9-cyclopentyl-9H-purin-6-ylamino]-piperidin-1-yl}-1-pyridin-3-yl-methanone] | 824 | 441 | 5.50 | 50 | 38 | – | – |
| N[C@H]1CC[C@H](Nc2nc(NC3CCN(C(=O)c4ccncc4)CC3)c3ncn(C4CCCC4)c3n2)CC1 [compound 68, trans-1-{4-[2-(4-Amino-cyclohexylamino)-9-cyclopentyl-9H-purin-6-ylamino]-piperidin-1-yl}-1-pyridin-4-yl-methanone] | 136 | 84 | 5.84 | 21 | 16 | – | – |
| N[C@H]1CC[C@H](Nc2nc(NC3CCN(C(=O)c4cc(C(F)(F)F)ccc4F)CC3)c3ncn(C4CCCC4)c3n2)CC1 [compound 69, trans-1-{4-[2-(4-Amino-cyclohexylamino)-9-cyclopentyl-9H-purin-6-ylamino]-piperidin-1-yl}-1-(2-fluoro-5-trifluoromethyl-phenyl)-methanone] | 48 | 84 | 6.07 | 0.48 | 0.35 | – | – |
| Cc1ccccc1C(=O)N1CCC(Nc2nc(N[C@H]3CC[C@H](N)CC3)nc3c2ncn3C2CCCC2)CC1 [compound 70, trans-1-{4-[2-(4-Amino-cyclohexylamino)-9-cyclopentyl-9H-purin-6-ylamino]-piperidin-1-yl}-1-(2-methyl-phenyl)-methanone] | 277 | 430 | 5.35 | 4.6 | 4.4 | – | – |
| N[C@H]1CC[C@H](Nc2nc(NC3CCN(C(=O)c4cccc(Br)c4)CC3)c3ncn(C4CCCC4)c3n2)CC1 [compound 71, trans-1-{4-[2-(4-Amino-cyclohexylamino)-9-cyclopentyl-9H-purin-6-ylamino]-piperidin-1-yl}-1-(3-bromophenyl)-methanone] | 53 | 91 | 6.16 | 0.64 | 0.61 | – | – |
| N[C@H]1CC[C@H](Nc2nc(NC3CCN(C(=O)c4cccc(Cl)c4)CC3)c3ncn(C4CCCC4)c3n2)CC1 [compound 72, trans-1-{4-[2-(4-Amino-cyclohexylamino)-9-cyclopentyl-9H-purin-6-ylamino]-piperidin-1-yl}-1-(3-chloro-phenyl)-methanone] | 51 | 89 | 6.06 | – | – | 0.03 | 0.03 |
| Cc1cccc(C(=O)N2CCC(Nc3nc(N[C@H]4CC[C@H](N)CC4)nc4c3ncn4C3CCCC3)CC2)c1 [compound 73, trans-1-{4-[2-(4-Amino-cyclohexylamino)-9-cyclopentyl-9H-purin-6-ylamino]-piperidin-1-yl}-1-(3-methyl-phenyl)-methanone] | 100 | 73 | 6.39 | 1.31 | 1.35 | – | – |
| N[C@H]1CC[C@H](Nc2nc(NC3CCN(C(=O)c4ccc(Br)cc4)CC3)c3ncn(C4CCCC4)c3n2)CC1 [compound 74, trans-1-{4-[2-(4-Amino-cyclohexylamino)-9-cyclopentyl-9H-purin-6-ylamino]-piperidin-1-yl}-1-(4-bromo-phenyl)-methanone] | 62 | 239 | 6.25 | 1.07 | 1.25 | – | – |
| N[C@H]1CC[C@H](Nc2nc(NC3CCN(C(=O)c4ccc(Cl)cc4)CC3)c3ncn(C4CCCC4)c3n2)CC1 [compound 75, trans-1-{4-[2-(4-Amino-cyclohexylamino)-9-cyclopentyl-9H-purin-6-ylamino]-piperidin-1-yl}-1-(4-chloro-phenyl)-methanone] | 71 | 58 | 6.10 | 1.38 | 1.7 | – | – |
| N[C@H]1CC[C@H](Nc2nc(NC3CCN(C(=O)c4ccc(I)cc4)CC3)c3ncn(C4CCCC4)c3n2)CC1 [compound 76, trans-1-{4-[2-(4-Amino-cyclohexylamino)-9-cyclopentyl-9H-purin-6-ylamino]-piperidin-1-yl}-1-(4-iodo-phenyl)-methanone] | 57 | 179 | 6.10 | 1.47 | 1.04 | – | – |
| Cc1ccc(C(=O)N2CCC(Nc3nc(N[C@H]4CC[C@H](N)CC4)nc4c3ncn4C3CCCC3)CC2)cc1 [compound 77, trans-1-{4-[2-(4-Amino-cyclohexylamino)-9-cyclopentyl-9H-purin-6-ylamino]-piperidin-1-yl}-1-(4-methyl-phenyl)-methanone] | 100 | 71 | 6.22 | 1.03 | 1.19 | – | – |
| N[C@H]1CC[C@H](Nc2nc(NC3CCN(C(=O)c4ccc(Cl)cc4Cl)CC3)c3ncn(C4CCCC4)c3n2)CC1 [compound 78, trans-1-{4-[2-(4-Amino-cyclohexylamino)-9-cyclopentyl-9H-purin-6-ylamino]-piperidin-1-yl}-1-(2,4-dichloro-phenyl)-methanone] | 101 | 155 | 6.28 | 1.56 | 1.53 | – | – |
| N[C@H]1CC[C@H](Nc2nc(NC3CCN(C(=O)c4cc(Cl)cc(Cl)c4)CC3)c3ncn(C4CCCC4)c3n2)CC1 [compound 79, trans-1-{4-[2-(4-Amino-cyclohexylamino)-9-cyclopentyl-9H-purin-6-ylamino]-piperidin-1-yl}-1-(3,5-dichloro-phenyl)-methanone] | 44 | 73 | 6.32 | 0.25 | 0.27 | – | – |
